Experimental data: ChEMBL document CHEMBL5143701, “Evaluation of potential anticonvulsant fluorinated N-benzamide enaminones as T-type Ca2+ channel blockers” (Bioorg Med Chem, 2022)
Active and inactive are the calls of the source. The rule behind the calls is not given here.

Tests used:
Type in all cases: cell-based
ND7/23 [1] = test: Inhibition of Voltage-dependent T-type calcium channel in mouse ND7/23 cells assessed as reduction in volatage induced T-type Ca2+ current density at 50 uM incubated for 5 mins by whole cell voltage-clamp assay
[2] = biological target: Voltage-dependent T-type calcium channel subunit alpha-1H (Homo sapiens) (UniProt O95180); test: Inhibition of Cav3.2 (unknown origin) stably transfected in HEK293 cells assessed as volatage induced T-type Ca2+ current at 1 to 50 uM incubated for 5 mins by whole cell voltage-clamp assay; conditions: dose 1-50 µM
Chain of Voltage-dependent T-type calcium channel subunit alpha-1H (Homo sapiens) (O95180 whole entry): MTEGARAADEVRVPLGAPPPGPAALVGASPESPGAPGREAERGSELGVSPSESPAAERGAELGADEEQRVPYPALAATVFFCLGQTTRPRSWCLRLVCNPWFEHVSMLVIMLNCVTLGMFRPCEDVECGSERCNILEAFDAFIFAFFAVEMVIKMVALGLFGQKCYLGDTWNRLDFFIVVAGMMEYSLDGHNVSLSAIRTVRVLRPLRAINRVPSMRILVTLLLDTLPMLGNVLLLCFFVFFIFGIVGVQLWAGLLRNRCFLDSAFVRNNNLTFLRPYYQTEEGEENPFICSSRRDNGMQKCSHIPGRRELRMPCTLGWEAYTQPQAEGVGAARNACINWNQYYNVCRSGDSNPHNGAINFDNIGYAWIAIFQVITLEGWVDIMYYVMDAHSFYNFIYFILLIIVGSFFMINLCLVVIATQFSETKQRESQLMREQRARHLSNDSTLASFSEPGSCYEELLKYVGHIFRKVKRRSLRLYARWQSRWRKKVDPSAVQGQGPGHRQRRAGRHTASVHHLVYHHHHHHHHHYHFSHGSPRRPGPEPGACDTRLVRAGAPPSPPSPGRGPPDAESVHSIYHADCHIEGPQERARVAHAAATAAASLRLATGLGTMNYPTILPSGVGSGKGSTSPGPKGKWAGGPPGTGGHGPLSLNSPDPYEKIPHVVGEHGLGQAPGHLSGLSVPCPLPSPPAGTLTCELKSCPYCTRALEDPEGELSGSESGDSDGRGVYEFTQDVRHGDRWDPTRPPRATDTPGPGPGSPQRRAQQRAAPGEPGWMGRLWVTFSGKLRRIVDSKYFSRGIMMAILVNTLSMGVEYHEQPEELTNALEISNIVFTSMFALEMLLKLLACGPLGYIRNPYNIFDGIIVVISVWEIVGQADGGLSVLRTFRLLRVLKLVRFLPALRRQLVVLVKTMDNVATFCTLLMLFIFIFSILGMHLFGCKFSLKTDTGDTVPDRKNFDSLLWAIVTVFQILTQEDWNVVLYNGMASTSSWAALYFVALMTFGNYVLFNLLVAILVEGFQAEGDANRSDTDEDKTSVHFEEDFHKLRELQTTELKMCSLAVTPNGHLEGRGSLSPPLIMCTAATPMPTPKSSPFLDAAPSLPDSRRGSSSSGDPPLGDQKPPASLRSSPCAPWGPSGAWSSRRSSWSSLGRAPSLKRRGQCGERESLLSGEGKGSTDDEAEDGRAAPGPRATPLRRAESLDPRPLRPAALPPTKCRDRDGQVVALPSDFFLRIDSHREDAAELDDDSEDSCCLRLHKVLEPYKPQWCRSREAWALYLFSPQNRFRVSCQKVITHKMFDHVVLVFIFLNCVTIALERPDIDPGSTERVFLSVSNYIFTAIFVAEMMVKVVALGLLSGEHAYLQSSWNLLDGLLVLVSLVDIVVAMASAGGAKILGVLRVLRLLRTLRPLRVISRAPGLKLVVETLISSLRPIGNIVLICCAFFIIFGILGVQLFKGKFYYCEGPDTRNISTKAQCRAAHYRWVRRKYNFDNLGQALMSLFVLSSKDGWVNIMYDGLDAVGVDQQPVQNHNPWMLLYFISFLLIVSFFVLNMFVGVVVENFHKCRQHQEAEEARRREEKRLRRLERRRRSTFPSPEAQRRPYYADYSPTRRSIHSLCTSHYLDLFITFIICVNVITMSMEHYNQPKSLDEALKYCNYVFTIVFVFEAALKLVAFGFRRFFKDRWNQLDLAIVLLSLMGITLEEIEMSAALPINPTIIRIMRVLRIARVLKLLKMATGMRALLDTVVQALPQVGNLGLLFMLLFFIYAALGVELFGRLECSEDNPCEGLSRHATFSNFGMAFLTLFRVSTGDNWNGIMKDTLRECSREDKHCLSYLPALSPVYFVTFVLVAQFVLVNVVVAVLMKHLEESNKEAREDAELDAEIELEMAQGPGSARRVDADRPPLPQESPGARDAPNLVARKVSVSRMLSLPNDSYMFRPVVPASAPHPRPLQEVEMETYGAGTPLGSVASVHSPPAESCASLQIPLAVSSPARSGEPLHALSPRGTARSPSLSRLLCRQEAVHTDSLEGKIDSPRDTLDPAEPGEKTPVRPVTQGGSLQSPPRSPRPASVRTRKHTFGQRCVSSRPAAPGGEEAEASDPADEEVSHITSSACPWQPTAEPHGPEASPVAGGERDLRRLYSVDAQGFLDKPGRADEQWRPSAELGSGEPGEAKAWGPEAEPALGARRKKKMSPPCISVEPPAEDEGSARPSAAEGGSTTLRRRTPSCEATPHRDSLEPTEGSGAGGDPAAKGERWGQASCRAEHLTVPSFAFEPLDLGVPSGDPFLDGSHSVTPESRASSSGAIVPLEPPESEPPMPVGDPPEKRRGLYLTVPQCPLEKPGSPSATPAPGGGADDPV

ND7/23 [3] = test: Inhibition of Voltage-dependent T-type calcium channel in mouse ND7/23 cells assessed as reduction in volatage induced T-type Ca2+ current density at 50 uM incubated for 5 mins followed by compound washout by whole cell voltage-clamp assay
[4] = Inhibition of Voltage-dependent T-type calcium channel in mouse ND7/23 cells assessed as reduction in volatage induced T-type Ca2+ current density incubated for 5 mins by whole cell voltage-clamp assay; conditions: ND7/23, 5 min
[5] = biological target: Voltage-dependent T-type calcium channel subunit alpha-1H (Homo sapiens) (UniProt O95180); test: Inhibition of Cav3.2 (unknown origin) stably transfected in HEK293 cells assessed as reduction in volatage induced peak current at 10 uM incubated for 5 mins by whole cell voltage-clamp assay
[6] = biological target: Voltage-dependent T-type calcium channel subunit alpha-1H (Homo sapiens) (UniProt O95180); test: Inhibition of Cav3.2 (unknown origin) stably transfected in HEK293 cells assessed as activation time constant transient current at 10 uM incubated for 5 mins by whole cell voltage-clamp assay
[7] = biological target: Voltage-dependent T-type calcium channel subunit alpha-1H (Homo sapiens) (UniProt O95180); test: Inhibition of Cav3.2 (unknown origin) stably transfected in HEK293 cells assessed as V1/2 at 10 uM incubated for 5 mins by whole cell voltage-clamp assay (reference value: -64.8 +/- 1.3mV)
[8] = biological target: Voltage-dependent T-type calcium channel subunit alpha-1H (Homo sapiens) (UniProt O95180); test: Inhibition of Cav3.2 (unknown origin) stably transfected in HEK293 cells assessed as slope factor at 10 uM incubated for 5 mins by whole cell voltage-clamp assay (reference value: 5.2 +/- 0.2No_unit)
[9] = biological target: Voltage-dependent T-type calcium channel subunit alpha-1H (Homo sapiens) (UniProt O95180); test: Inhibition of Cav3.2 (unknown origin) stably transfected in HEK293 cells assessed as increase in recovery time at 10 uM incubated for 5 mins by whole cell voltage-clamp assay (reference value: 514.5 +/- 37.8ms)
HEK293 = test: Inhibition of Cav3.2 (unknown origin) stably transfected in HEK293 cells assessed as reduction in volatage induced Ca2+ current density at 10 uM incubated for 5 mins by whole cell voltage-clamp assay; conditions: Homo sapiens
[10] = biological target: Voltage-dependent T-type calcium channel subunit alpha-1I (Homo sapiens) (UniProt Q9P0X4); test: Inhibition of Cav3.3 (unknown origin) stably transfected in HEK293 cells assessed as activation time constant transient current at 10 uM incubated for 5 mins by whole cell voltage-clamp assay
Chain of Voltage-dependent T-type calcium channel subunit alpha-1I (Homo sapiens) (Q9P0X4 whole entry): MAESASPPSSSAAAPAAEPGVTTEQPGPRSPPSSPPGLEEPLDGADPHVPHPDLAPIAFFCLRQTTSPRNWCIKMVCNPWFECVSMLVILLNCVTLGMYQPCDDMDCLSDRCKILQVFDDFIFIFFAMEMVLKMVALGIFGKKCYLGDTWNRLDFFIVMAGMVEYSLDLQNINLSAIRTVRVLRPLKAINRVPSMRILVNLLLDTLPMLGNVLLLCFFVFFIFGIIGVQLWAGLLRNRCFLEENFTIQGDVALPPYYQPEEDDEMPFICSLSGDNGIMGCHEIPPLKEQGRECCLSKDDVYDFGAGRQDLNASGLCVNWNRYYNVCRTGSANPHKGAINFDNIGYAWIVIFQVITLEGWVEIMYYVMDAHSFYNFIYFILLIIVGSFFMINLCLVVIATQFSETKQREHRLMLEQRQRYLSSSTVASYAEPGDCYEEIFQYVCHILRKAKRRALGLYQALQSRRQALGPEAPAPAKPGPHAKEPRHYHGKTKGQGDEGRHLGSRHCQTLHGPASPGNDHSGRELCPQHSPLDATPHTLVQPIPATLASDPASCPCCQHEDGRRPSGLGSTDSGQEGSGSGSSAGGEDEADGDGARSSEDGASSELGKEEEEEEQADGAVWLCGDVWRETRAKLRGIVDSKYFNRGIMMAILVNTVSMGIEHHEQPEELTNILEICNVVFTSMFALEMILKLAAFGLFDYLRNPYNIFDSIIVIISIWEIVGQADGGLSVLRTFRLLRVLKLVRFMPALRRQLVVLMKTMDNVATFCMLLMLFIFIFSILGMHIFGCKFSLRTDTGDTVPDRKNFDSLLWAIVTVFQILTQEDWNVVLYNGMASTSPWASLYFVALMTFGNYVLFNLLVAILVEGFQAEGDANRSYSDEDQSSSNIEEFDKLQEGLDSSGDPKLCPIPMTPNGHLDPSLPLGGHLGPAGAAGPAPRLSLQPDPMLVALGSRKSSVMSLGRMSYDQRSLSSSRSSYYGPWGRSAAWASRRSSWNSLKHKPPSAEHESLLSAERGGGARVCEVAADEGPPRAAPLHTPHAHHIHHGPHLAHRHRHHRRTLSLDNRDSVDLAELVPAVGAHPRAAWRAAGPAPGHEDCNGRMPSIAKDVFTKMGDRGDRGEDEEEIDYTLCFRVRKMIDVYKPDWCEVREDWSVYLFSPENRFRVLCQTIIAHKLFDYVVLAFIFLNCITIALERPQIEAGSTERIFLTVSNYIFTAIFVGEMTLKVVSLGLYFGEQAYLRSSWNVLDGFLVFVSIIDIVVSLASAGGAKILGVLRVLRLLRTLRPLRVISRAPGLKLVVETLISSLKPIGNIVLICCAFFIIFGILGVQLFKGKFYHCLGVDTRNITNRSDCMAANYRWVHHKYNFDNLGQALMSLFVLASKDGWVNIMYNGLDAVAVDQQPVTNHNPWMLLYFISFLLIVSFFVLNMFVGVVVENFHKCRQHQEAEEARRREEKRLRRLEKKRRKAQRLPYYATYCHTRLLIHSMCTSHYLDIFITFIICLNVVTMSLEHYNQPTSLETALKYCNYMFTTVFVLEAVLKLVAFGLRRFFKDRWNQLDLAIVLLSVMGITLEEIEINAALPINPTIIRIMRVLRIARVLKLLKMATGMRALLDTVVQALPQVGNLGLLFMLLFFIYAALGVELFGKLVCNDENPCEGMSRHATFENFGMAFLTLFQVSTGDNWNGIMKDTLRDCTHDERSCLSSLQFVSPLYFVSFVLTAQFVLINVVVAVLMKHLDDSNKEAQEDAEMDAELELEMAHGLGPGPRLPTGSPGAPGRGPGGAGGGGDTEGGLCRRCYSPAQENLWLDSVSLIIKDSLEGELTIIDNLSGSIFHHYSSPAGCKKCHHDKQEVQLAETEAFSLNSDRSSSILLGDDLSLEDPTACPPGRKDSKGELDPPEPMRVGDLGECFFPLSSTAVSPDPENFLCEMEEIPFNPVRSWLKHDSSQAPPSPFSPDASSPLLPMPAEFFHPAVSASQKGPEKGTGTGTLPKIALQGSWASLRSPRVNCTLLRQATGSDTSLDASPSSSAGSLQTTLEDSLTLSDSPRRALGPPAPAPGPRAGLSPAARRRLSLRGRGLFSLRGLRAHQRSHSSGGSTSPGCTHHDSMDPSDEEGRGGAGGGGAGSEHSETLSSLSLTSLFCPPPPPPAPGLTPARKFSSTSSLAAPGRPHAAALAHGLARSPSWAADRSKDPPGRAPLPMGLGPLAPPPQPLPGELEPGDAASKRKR

[11] = biological target: Voltage-dependent T-type calcium channel subunit alpha-1I (Homo sapiens) (UniProt Q9P0X4); test: Inhibition of Cav3.3 (unknown origin) stably transfected in HEK293 cells assessed as reduction inactivation time constant transient current at 10 uM incubated for 5 mins by whole cell voltage-clamp assay
[12] = biological target: Voltage-dependent T-type calcium channel subunit alpha-1I (Homo sapiens) (UniProt Q9P0X4); test: Inhibition of Cav3.3 (unknown origin) stably transfected in HEK293 cells assessed as V1/2 at 10 uM incubated for 5 mins by whole cell voltage-clamp assay (reference value: -65.6 +/- 3.1mV)
[13] = biological target: Voltage-dependent T-type calcium channel subunit alpha-1I (Homo sapiens) (UniProt Q9P0X4); test: Inhibition of Cav3.3 (unknown origin) stably transfected in HEK293 cells assessed as slope factor at 10 uM incubated for 5 mins by whole cell voltage-clamp assay (reference value: 5.3 +/- 0.6mV)

Row | inhibition [2] | IC50 [4] [µM] | inhibition [5] | inhibition [6] | V1/2 [7] [mV] | Activity [8] | TIME [9] [h] | inhibition [10] | inhibition [11] | V1/2 [12] [mV] | Activity [13] | Structure (SMILES) | inhibition (ND7/23 [1]) | inhibition (ND7/23 [3]) | inhibition (HEK293)
1 | – | – | – | – | – | – | – | – | – | – | – | CC1CC(=O)C=C(NC(=O)c2cccc(C(F)(F)F)c2)C1 (stereo not given) | Active | – | –
2 | Active | 18.9 | Active | Active | -70.2 | 6 | 0.000267 | Active | Active | -58.5 | 5.3 | CC1CC(=O)C=C(NC(=O)c2cc(C(F)(F)F)cc(C(F)(F)F)c2)C1 (stereo not given) | – | Active | Active
3 | – | – | – | – | – | – | – | – | – | – | – | CC1CC(=O)C=C(NC(=O)c2ccccc2C(F)(F)F)C1 (stereo not given) | Active | – | –
